Converted amounts (≈) assume the structure as drawn. The source made the active and inactive calls. The calls are words filed in the database; no cut-off is given here.
How the values were obtained:
[1] = Protein binding in SCID mouse plasma; type: ADME, cell-free; conditions: read-out: PPB (converted)
HFF = assay: Cytotoxicity against HFF cells; type: cell-based; conditions: Homo sapiens
BT-474 = assay: Cytotoxicity against human BT474 cells; type: functional, cell-based
[2] = target: RAC-beta serine/threonine-protein kinase (Homo sapiens, UniProt P31751); assay: Inhibition of AKT2
[3] = target: RAC-gamma serine/threonine-protein kinase (Homo sapiens, UniProt Q9Y243); assay: Inhibition of AKT3
LNCaP = assay: Cytotoxicity against human LNCAP cells; type: functional, cell-based
Cytochrome P450 3A4 = Cytochrome P450 3A4 (Homo sapiens, UniProt P08684); assay: Inhibition of CYP3A4; type: ADME
[4] = target: RAC-alpha serine/threonine-protein kinase (Homo sapiens, UniProt P31749); assay: Inhibition of AKT1
[5] = Solubility of the compound; type: physicochemical
[6] = Drug level in tumor of human BT474 cells xenografted in SCID mouse at 50 mg/kg, ip; type: ADME, organism-based, Neoplasm, BT-474; set-up: dose 50 mg/kg, route intraperitoneal; conditions: in vivo
Mus musculus [7] = assay: Inhibition of GSK3-beta phosphorylation in human BT474 cell xenografted SCID mouse at 50 mg/kg, ip; type: functional; conditions: BT-474, ip, route intraperitoneal
Mus musculus [8] = assay: Inhibition of GSK3-beta phosphorylation in human BT474 cell xenografted SCID mouse at 12.5 mg/kg, ip; type: functional, organism-based; set-up: dose 12.5 mg/kg; conditions: BT-474
Mus musculus [9] = assay: Inhibition of GSK3-beta phosphorylation in human BT474 cell xenografted SCID mouse at 25 mg/kg, ip; type: functional, organism-based; set-up: dose 25 mg/kg; conditions: BT-474
[10] = target: Serine/threonine-protein kinase PAK 1 (Homo sapiens, UniProt Q13153); assay: Inhibition of PAK1
Cytochrome P450 2C19 = Cytochrome P450 2C19 (Homo sapiens, UniProt P33261); assay: Inhibition of CYP2C19; type: ADME
[11] = target: Ribosomal protein S6 kinase beta-1 (Homo sapiens, UniProt P23443); assay: Inhibition of P70S6K
[12] = Inhibition of RSK
Cytochrome P450 2D6 = Cytochrome P450 2D6 (Homo sapiens, UniProt P10635); assay: Inhibition of CYP2D6; type: ADME
Cytochrome P450 1A2 = target: T1, Cytochrome P450 1A2 (Homo sapiens, UniProt P05177); assay: Inhibition of CYP1A2; type: ADME
T1 sequence (P05177 whole entry): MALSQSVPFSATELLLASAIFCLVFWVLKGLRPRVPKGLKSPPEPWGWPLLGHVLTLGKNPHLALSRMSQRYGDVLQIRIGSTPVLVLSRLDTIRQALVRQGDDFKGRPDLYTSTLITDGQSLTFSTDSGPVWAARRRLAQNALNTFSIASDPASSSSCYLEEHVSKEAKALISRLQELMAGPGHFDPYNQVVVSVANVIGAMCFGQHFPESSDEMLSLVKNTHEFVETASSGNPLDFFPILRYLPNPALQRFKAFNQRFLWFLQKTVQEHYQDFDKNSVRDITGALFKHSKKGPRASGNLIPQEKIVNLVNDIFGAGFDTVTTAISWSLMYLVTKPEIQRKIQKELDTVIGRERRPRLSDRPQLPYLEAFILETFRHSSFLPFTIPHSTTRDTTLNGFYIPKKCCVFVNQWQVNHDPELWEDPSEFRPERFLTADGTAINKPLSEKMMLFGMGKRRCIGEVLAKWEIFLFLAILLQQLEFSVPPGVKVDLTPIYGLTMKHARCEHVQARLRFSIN

[13] = Inhibition of PKA
[14] = target: Rho-associated protein kinase 1 (Homo sapiens, UniProt Q13464); assay: Inhibition of ROCK1
Chain of Rho-associated protein kinase 1 (Q13464 whole entry): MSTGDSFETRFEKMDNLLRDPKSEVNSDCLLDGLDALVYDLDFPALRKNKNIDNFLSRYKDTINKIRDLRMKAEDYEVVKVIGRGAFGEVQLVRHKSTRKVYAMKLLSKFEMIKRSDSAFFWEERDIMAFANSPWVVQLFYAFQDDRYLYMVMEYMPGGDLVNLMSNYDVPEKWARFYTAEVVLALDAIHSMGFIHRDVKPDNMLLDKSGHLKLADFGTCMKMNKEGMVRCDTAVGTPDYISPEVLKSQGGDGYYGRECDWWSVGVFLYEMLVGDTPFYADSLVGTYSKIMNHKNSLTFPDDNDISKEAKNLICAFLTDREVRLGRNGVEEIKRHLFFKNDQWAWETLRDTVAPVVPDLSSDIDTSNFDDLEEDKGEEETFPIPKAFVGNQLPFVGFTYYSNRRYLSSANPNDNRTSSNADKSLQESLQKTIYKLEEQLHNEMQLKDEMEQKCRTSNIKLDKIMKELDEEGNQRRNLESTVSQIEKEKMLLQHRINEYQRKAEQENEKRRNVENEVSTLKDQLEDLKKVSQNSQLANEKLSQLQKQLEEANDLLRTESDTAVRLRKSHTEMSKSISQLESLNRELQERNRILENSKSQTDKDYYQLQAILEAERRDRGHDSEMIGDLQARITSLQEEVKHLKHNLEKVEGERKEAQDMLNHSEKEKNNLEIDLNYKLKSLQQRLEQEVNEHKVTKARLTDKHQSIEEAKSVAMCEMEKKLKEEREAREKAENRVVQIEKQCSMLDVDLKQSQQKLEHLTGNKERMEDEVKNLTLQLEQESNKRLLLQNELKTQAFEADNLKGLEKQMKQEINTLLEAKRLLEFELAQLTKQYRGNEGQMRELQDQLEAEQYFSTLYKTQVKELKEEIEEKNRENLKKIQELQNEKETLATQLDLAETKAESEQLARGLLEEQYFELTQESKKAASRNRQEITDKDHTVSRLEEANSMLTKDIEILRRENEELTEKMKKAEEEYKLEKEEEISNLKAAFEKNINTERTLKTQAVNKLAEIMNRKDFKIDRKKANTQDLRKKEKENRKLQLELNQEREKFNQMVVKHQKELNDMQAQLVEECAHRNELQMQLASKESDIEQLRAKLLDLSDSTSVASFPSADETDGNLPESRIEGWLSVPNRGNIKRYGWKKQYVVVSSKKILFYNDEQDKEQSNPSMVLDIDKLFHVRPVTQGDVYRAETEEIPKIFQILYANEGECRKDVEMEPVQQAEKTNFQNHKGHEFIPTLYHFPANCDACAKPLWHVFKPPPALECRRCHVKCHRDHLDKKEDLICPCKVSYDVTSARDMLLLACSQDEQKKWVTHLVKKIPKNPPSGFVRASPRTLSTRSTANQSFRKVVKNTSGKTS

Chain of Cytochrome P450 3A4 (P08684 whole entry): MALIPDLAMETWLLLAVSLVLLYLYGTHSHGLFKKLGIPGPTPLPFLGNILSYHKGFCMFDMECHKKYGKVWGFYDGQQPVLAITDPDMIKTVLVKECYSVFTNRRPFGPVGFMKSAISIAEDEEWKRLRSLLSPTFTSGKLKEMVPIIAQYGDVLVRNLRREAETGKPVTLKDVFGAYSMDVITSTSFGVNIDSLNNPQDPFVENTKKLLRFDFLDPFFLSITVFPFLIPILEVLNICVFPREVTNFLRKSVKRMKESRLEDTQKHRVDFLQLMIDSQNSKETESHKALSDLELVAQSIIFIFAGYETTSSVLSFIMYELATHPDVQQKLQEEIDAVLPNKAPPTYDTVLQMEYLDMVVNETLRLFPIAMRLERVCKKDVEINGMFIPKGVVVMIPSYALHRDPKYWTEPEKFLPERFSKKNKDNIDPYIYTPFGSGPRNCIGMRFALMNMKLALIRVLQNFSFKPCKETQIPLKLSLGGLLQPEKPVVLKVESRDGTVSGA
Chain of RAC-alpha serine/threonine-protein kinase (P31749 whole entry): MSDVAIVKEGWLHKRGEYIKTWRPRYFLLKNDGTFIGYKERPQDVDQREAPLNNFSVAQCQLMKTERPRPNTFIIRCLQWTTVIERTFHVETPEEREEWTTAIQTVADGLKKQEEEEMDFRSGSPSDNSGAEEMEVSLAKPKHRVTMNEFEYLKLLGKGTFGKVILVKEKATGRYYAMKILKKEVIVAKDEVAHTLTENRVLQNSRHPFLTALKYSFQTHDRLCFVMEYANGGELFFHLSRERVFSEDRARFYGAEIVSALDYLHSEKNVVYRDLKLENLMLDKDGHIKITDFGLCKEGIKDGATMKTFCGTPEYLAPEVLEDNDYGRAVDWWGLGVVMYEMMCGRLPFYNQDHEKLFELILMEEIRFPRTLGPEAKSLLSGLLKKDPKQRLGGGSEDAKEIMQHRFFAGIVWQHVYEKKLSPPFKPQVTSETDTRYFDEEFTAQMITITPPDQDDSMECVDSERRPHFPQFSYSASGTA
Chain of RAC-gamma serine/threonine-protein kinase (Q9Y243 whole entry): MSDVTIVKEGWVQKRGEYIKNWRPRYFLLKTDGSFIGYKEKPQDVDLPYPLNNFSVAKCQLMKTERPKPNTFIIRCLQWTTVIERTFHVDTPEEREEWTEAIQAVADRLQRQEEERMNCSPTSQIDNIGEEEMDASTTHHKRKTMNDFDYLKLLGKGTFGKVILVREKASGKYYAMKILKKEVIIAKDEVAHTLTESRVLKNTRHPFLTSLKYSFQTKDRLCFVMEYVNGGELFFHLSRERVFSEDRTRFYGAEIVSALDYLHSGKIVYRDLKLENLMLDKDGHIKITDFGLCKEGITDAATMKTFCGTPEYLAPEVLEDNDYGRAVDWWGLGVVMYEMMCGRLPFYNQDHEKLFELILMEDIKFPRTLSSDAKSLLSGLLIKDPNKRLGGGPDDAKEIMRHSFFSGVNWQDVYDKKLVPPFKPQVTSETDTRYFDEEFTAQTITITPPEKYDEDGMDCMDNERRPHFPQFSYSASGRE
Chain of RAC-beta serine/threonine-protein kinase (P31751 whole entry): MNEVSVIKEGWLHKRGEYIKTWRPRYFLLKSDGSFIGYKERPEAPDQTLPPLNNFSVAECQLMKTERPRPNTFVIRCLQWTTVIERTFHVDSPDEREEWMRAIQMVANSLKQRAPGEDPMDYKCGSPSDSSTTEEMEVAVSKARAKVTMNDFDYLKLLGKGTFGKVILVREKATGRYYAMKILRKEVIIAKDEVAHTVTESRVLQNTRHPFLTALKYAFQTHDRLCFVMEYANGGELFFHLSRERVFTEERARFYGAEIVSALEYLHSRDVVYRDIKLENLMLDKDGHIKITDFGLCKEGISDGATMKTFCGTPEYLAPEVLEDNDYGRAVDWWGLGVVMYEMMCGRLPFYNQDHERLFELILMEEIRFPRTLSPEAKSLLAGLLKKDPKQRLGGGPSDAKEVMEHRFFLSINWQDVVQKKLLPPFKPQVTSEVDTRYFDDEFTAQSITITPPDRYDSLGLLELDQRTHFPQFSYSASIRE
Chain of Cytochrome P450 2D6 (P10635 whole entry): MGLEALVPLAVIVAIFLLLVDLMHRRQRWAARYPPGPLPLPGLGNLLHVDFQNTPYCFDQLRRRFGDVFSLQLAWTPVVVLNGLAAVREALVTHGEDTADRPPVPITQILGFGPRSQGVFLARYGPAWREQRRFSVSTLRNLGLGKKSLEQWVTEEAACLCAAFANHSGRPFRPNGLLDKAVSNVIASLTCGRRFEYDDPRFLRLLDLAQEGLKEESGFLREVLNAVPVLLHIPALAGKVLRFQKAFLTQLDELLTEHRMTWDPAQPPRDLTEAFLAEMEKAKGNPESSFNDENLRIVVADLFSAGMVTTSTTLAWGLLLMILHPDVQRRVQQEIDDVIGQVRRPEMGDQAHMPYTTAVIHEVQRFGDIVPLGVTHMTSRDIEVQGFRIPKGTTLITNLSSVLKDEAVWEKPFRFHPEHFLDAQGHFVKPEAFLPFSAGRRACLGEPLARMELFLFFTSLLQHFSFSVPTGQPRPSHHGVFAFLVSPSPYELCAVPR
Chain of Serine/threonine-protein kinase PAK 1 (Q13153 whole entry): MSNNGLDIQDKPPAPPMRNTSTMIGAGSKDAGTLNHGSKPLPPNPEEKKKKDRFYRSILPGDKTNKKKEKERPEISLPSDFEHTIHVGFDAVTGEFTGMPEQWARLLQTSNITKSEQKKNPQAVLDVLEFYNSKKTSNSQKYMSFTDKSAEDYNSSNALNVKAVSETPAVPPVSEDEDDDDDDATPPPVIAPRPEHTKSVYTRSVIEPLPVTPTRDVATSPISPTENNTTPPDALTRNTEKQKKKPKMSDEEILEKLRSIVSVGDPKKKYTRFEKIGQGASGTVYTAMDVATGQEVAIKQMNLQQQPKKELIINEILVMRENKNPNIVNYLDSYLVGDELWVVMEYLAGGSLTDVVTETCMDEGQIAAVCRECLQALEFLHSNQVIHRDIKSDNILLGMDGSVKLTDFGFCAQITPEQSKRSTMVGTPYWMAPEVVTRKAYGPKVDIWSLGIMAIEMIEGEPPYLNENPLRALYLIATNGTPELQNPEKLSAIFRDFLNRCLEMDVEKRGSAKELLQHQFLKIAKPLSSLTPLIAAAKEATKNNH
Chain of Ribosomal protein S6 kinase beta-1 (P23443 whole entry): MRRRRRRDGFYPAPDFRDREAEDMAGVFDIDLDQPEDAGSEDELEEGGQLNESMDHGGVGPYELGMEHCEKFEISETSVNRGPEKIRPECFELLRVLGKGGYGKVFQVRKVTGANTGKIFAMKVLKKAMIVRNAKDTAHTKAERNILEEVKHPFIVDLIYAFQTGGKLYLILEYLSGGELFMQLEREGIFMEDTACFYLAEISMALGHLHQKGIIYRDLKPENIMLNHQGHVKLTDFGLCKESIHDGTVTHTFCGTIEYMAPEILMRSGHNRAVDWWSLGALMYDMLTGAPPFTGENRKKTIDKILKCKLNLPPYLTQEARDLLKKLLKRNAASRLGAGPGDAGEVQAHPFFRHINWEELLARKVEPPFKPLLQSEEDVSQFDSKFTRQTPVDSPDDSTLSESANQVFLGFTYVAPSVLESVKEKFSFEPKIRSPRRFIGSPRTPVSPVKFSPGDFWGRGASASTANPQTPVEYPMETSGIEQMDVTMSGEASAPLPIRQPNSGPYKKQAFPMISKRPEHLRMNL

Structure (SMILES)	fraction unbound [1]	IC50 (HFF) [nM]	IC50 (BT-474) [nM]	IC50 [2] [nM]	IC50 [3] [nM]	IC50 (LNCaP) [nM]	IC50 (Cytochrome P450 3A4) [nM]	IC50 [4] [nM]	solubility [5] [µM]	further results
Cc1n[nH]c2cnc(-c3cc(OC[C@@H](N)Cc4c[nH]c5ccccc45)cnc3-c3ccoc3)cc12	0.057	6500	750	6	1	230	16	1	–	–
Cc1n[nH]c2ncc(-c3cc(OC[C@@H](N)Cc4c[nH]c5ccccc45)cnc3-c3ccoc3)cc12	0.047	6600	300	–	–	85	200	1	108 (≈ 50.2 µg/mL)	–
Cc1n[nH]c2ccc(-c3cc(OC[C@@H](N)Cc4c[nH]c5ccccc45)cnc3-c3ccoc3)nc12	0.069	30000	2100	–	–	830	100	12	225 (≈ 105 µg/mL)	–
Cc1n[nH]c2ncc(-c3cc(OC[C@@H](N)Cc4c[nH]c5ccccc45)cnc3-c3ccoc3)nc12	0.091	14300	370	39	10	96	400	2	200 (≈ 93.1 µg/mL)	Drug uptake [6]: 3798 ng/mL; inhibition in vivo at 50 mg/kg (Mus musculus [7]): 80%; Activity (Mus musculus [8]): inactive; Activity (Mus musculus [9]): inactive
Cc1n[nH]c2cnc(-c3cc(OC[C@@H](N)Cc4c[nH]c5ccccc45)cnc3-c3ccoc3)nc12	0.155	30000	640	31	15	540	1300	1	205 (≈ 95.4 µg/mL)	–
Cc1[nH]nc2ccc(-c3cc(OC[C@@H](N)Cc4c[nH]c5ccccc45)cnc3-c3ccoc3)cc12	0.041	5500	340	12	1	190	50	1	52 (≈ 24.1 µg/mL)	IC50 [10]: 31 nM; IC50 (Cytochrome P450 2C19): 2000 nM; IC50 [11]: 7 nM; IC50 [12]: 25 nM; IC50 (Cytochrome P450 2D6): 5000 nM; IC50 (Cytochrome P450 1A2): 50000 nM; IC50 [13]: 1 nM; IC50 [14]: 1580 nM
